pIC50: −log10 of the molar value. Calls of active or inactive are those of the source. The calls are words filed in the database; no cut-off is given here. *1 amine or outer side, *2 acyl side, *3 side chain or, on linkers, in order; H or OH if unused. Where a SMILES comes first, the peptide text is derived from it. Side-chain parts run from the residue outwards. The star is where a group is joined. NH(CH2)3O(βDGlc) = OC[C@H]1O[C@@H](OCCCN*)[C@H](O)[C@@H](O)[C@@H]1O; Glutaryl = O=C(CCCC(=O)[*:2])[*:1]; Lauroyl = CCCCCCCCCCCC(=O)*
Columns and labels:
B16-F10 [1] = experiment: Cytotoxicity against mouse B16-F10 cells assessed as cell viability after 24 hrs by CCK-8 assay; assay type: functional, cell-based; details: B16-F10, 24 h
[2] = target: T1, Solute carrier family 2, facilitated glucose transporter member 1 (Homo sapiens) (UniProt P11166); experiment: Binding affinity to GLUT1 (unknown origin) membrane assessed as free energy
T1 sequence (whole entry): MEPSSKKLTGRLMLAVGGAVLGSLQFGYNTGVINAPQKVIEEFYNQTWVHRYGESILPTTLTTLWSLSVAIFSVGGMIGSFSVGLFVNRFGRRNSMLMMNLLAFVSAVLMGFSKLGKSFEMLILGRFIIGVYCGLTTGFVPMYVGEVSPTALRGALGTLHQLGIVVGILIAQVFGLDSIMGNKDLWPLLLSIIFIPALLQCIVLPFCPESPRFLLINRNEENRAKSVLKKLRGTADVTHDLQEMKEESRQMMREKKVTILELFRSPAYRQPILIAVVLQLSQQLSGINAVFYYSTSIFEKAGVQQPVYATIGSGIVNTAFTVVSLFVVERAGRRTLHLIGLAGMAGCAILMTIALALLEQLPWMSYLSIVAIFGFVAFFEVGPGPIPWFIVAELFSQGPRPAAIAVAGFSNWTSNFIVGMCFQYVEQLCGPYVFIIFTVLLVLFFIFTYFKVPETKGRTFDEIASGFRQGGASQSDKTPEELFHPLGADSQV

[3] = target: T1, Solute carrier family 2, facilitated glucose transporter member 1 (Homo sapiens); experiment: Binding affinity to GLUT1 (unknown origin) assessed as binding free energy
Homo sapiens = organism: Homo sapiens; experiment: Binding affinity to membrane (unknown origin) assessed as binding free energy
B16-F10 [4] = experiment: Antiinvasive activity against mouse B16-F10 cells assessed as inhibition of cell migration at 0.75 to 1.5 microM incubated for 72 hrs by transwell migration assay; assay type: functional, cell-based; details: dose 0.75-1.5 µM
B16-F10 [5] = experiment: Antitumor activity against mouse B16-F10 cells implanted in BALB/c mouse assessed as reduction in tumor volume at 15 mg/kg, ip administered for every 2 days; assay type: functional, organism-based; details: time 2.0 day
B16-F10 [6] = experiment: Antitumor activity against mouse B16-F10 cells implanted in KM mouse assessed as metastatic nodules in lungs at 10 mg/kg, iv administered for every 2 days measured after 9 days; assay type: functional, organism-based; details: time 9.0 day
B16-F10 [7] = experiment: Antimetastatic activity against mouse B16-F10 cells implanted in KM mouse assessed as reduction lung metastatic nodules at 200 microL of 10 mg/kg, iv administered once every 2 days by H and E staining method; assay type: functional, organism-based; details: time 2.0 day
[8] = Toxicity in BALB/c mouse implanted in mouse B16-F10 cells assessed as body weight change at 15 mg/kg, ip administered for days; assay type: organism-based; details: in vivo
B16-F10 [9] = experiment: Antiproliferative activity against mouse B16-F10 cells assessed as inhibition of colony formation incubated for 12 days by crystal violet dye based assay; assay type: functional, cell-based; details: B16-F10, 288 h
B16-F10 [10] = experiment: Induction of cell membrane disruption in mouse B16-F10 cells incubated for 24 hrs by SYTO 9/PI staining based fluorescence microscopy; assay type: functional
B16-F10 [11] = experiment: Induction of cell membrane disruption in mouse B16-F10 cells assessed as membrane permeability at 5 uM incubated for 24 hrs by trypan blue staining based light microscopy; assay type: functional
B16-F10 [12] = experiment: Induction of cell membrane disruption in mouse B16-F10 cells assessed as shrunken morphology at 5 uM incubated for 24 hrs by scanning electron microscopy; assay type: functional, cell-based
B16-F10 [13] = experiment: Cytotoxicity against mouse B16-F10 cells assessed as LDH release at 3.125 to 6.25 uM incubated for 24 hrs by LDH assay; assay type: functional, cell-based; details: dose 3.125-6.25 µM
[14] = target: T1, Solute carrier family 2, facilitated glucose transporter member 1 (Homo sapiens); experiment: Induction of GLUT1-mediated human HeLa cell cytotoxicity assessed as cell viability at 12.5 uM incubated for 24 hrs by CCK-8 assay
[15] = target: T1, Solute carrier family 2, facilitated glucose transporter member 1 (Homo sapiens); experiment: Induction of GLUT1-mediated human A549 cell cytotoxicity assessed as cell viability at 12.5 uM incubated for 24 hrs by CCK-8 assay
B16-F10 [16] = experiment: Induction of GLUT1-mediated mouse B16-F10 cell cytotoxicity assessed as cell viability at 3.125 uM incubated for 24 hrs by CCK-8 assay
[17] = target: T1, Solute carrier family 2, facilitated glucose transporter member 1 (Homo sapiens); experiment: Induction of GLUT1-mediated HEK293T cytotoxicity assessed as cell viability at 3.125 uM incubated for 24 hrs by CCK-8 assay
B16-F10 [18] = experiment: Cytotoxicity against GLUT1 - knocked down mouse B16-F10 cells assessed as cell viability after 24 hrs by CCK-8 assay; assay type: functional, cell-based
B16-F10 [19] = experiment: Antiinvasive activity against mouse B16-F10 cells assessed as inhibition of cell migration at 0.75 microM incubated for 72 hrs by Matrigel based transwell invasion assay; assay type: functional
B16-F10 [20] = experiment: Cytotoxicity against mouse B16-F10 cells assessed as inhibition of spheroid proliferation at 5 uM after 3 days by 3D-shperoid assay relative to control; assay type: functional, cell-based; details: time 3.0 day
[21] = Stability in 10% fetal bovine serum measured after 24 hrs; assay type: ADME, cell-free, Bos taurus; details: cattle
B16-F10 [22] = experiment: Anti-migration activity against mouse B16-F10 cells assessed as inhibition of spheroid migration at 2.5 uM after 3 days by crystal violet staining based assay; assay type: functional, cell-based; details: time 3.0 day
[23] = Toxicity in KM mouse implanted in mouse B16-F10 cells assessed as body weight change at 10 mg/kg, iv administered for days; assay type: organism-based; details: in vivo
[24] = Toxicity in BALB/c mouse implanted in mouse B16-F10 cells assessed as pathological changes in liver at 15 mg/kg, ip administered for days by H& E staining based assay; assay type: organism-based; details: in vivo
[25] = Toxicity in BALB/c mouse implanted in mouse B16-F10 cells assessed as pathological changes in spleen at 15 mg/kg, ip administered for days by H& E staining based assay; assay type: organism-based; details: in vivo
[26] = Toxicity in BALB/c mouse implanted in mouse B16-F10 cells assessed as pathological changes in heart at 15 mg/kg, ip administered for days by H& E staining based assay; assay type: organism-based; details: in vivo
B16-F10 [27] = experiment: Antitumor activity against mouse B16-F10 cells implanted in BALB/c mouse assessed as apoptotic cells in tumor tissue at 15 mg/kg, ip administered for 12 days by TUNEL assay; assay type: functional, organism-based; details: time 12.0 day
MX1 = experiment: Cytotoxicity against human MX1 cells assessed as cell viability measured after 24 hrs by CCK-8 assay; assay type: functional, cell-based; details: MX1, 24 h
MCF7 = experiment: Cytotoxicity against human MCF7 cells assessed as cell viability measured after 24 hrs by CCK-8 assay; assay type: functional, cell-based; details: MCF7, 24 h
MDA-MB-231 = experiment: Cytotoxicity against human MDA-MB-231 cells assessed as cell viability measured after 24 hrs by CCK-8 assay; assay type: functional, cell-based; details: MDA-MB-231, 24 h

SMILES	pIC50 (B16-F10 [1])	deltaG [2] [kcal/mol]	deltaG [3] [kcal/mol]	deltaG (Homo sapiens) [kcal/mol]	Activity (B16-F10 [4])	Activity (B16-F10 [5])	Activity (B16-F10 [6])	Activity (B16-F10 [7])	Activity [8]	Activity (B16-F10 [10])	Activity (B16-F10 [11])	Activity (B16-F10 [12])	Activity (B16-F10 [13])	Activity [14]	Activity [15]	Activity (B16-F10 [16])	Activity [17]	Activity (B16-F10 [20])	Stability [21]	Activity (B16-F10 [22])	also measured
CCCCCCCCCCCC(=O)N[C@@H](CCCNC(=N)N)C(=O)NCC(=O)N[C@@H](Cc1c[nH]c2ccccc12)C(=O)N[C@@H](Cc1ccccc1)C(=O)N[C@@H](CCCNC(=N)N)C(=O)N[C@@H](C)C(=O)N[C@@H](CCSC)C(=O)N[C@@H](CCCNC(=N)N)C(=O)N[C@@H](CO)C(=O)N[C@H](C(=O)N[C@@H](C)C(=O)N[C@@H](CCCCNC(=O)CCCC(=O)NCCCO[C@@H]1O[C@H](CO)[C@@H](O)[C@H](O)[C@H]1O)C(=O)N[C@@H](Cc1ccccc1)C(=O)N[C@H](C(=O)N[C@@H](C)C(=O)N[C@@H](CCCNC(=N)N)C(=O)N[C@@H](CCC(=O)O)C(=O)N[C@@H](CCCNC(=N)N)C(=O)N[C@@H](CC(C)C)C(=O)N[C@@H](CCCNC(=N)N)C(=O)N[C@@H](CCC(=O)O)C(=O)N[C@@H](Cc1cnc[nH]1)C(=O)N[C@@H](CC(C)C)C(N)=O)[C@@H](C)CC)[C@@H](C)CC (Lauroyl-RGWFRAMRSIAK([Glutaryl-NH(CH2)3O(βDGlc)])FIARERLREHL-NH2)	5.72	-79.6	-78	-76.6	Active	Active	Active	inactive	Non-Toxic	Active	Active	Active	Active	Active	Active	Active	inactive	Active	Stable	Active	pIC50 (B16-F10 [9]): 6.43; Activity (B16-F10 [18]): inactive; Activity (B16-F10 [19]): Active; Activity [23]: Non-Toxic; Activity [24]: Non-Toxic; Activity [25]: Non-Toxic; Activity [26]: Non-Toxic; Activity (B16-F10 [27]): Active
CCCCCCCCCCCCCC(=O)N[C@@H](CCCNC(=N)N)C(=O)N[C@@H](Cc1c[nH]c2ccccc12)C(=O)N[C@@H](CCCCN)C(=O)N[C@H](C(=O)N[C@@H](Cc1ccccc1)C(=O)N[C@@H](CCCCN)C(=O)N[C@@H](CCCCN)C(=O)N[C@H](C(=O)N[C@@H](CCC(=O)O)C(=O)N[C@@H](CCCCN)C(=O)N[C@H](C(=O)NCC(=O)N[C@@H](CCC(N)=O)C(=O)N[C@@H](CC(N)=O)C(=O)N[C@H](C(=O)N[C@@H](CCCNC(=N)N)C(=O)N[C@@H](CC(=O)O)C(=O)NCC(=O)N[C@H](C(=O)N[C@H](C(=O)N[C@@H](CCCCN)C(=O)N[C@@H](C)C(=O)NCC(=O)N1CCC[C@H]1C(=O)N[C@@H](C)C(=O)N[C@H](C(=O)N[C@@H](C)C(=O)N[C@H](C(=O)N[C@H](C(=O)NCC(=O)N[C@@H](CCC(N)=O)C(=O)N[C@@H](C)C(=O)N[C@@H](C)C(=O)N[C@H](C(=O)N[C@H](C(N)=O)[C@@H](C)CC)[C@@H](C)O)C(C)C)C(C)C)C(C)C)C(C)C)[C@@H](C)CC)[C@@H](C)CC)C(C)C)[C@@H](C)CC)[C@@H](C)CC (HELM PEPTIDE1{[CCCCCCCCCCCCCC(=O)[*:2]].R.W.K.I.F.K.K.I.E.K.V.G.Q.N.I.R.D.G.I.V.K.A.G.P.A.V.A.V.V.G.Q.A.A.T.I.[am]}$$$$V2.0)	–	–	–	–	–	–	–	–	–	–	–	–	–	–	–	–	–	–	–	–	pIC50 (MX1): > 5.10; pIC50 (MCF7): > 5.10; pIC50 (MDA-MB-231): > 5.10
CCCCCCCCCCCC(=O)N[C@@H](CCCNC(=N)N)C(=O)NCC(=O)N[C@@H](Cc1c[nH]c2ccccc12)C(=O)N[C@@H](Cc1ccccc1)C(=O)N[C@@H](CCCNC(=N)N)C(=O)N[C@@H](C)C(=O)N[C@@H](CCSC)C(=O)N[C@@H](CCCNC(=N)N)C(=O)N[C@@H](CO)C(=O)N[C@H](C(=O)N[C@@H](C)C(=O)N[C@@H](CCCNC(=N)N)C(=O)N[C@@H](Cc1ccccc1)C(=O)N[C@H](C(=O)N[C@@H](C)C(=O)N[C@@H](CCCNC(=N)N)C(=O)N[C@@H](CCC(=O)O)C(=O)N[C@@H](CCCNC(=N)N)C(=O)N[C@@H](CC(C)C)C(=O)N[C@@H](CCCNC(=N)N)C(=O)N[C@@H](CCC(=O)O)C(=O)N[C@@H](Cc1cnc[nH]1)C(=O)N[C@@H](CC(C)C)C(N)=O)[C@@H](C)CC)[C@@H](C)CC (HELM PEPTIDE1{[CCCCCCCCCCCC(=O)[*:2]].R.G.W.F.R.A.M.R.S.I.A.R.F.I.A.R.E.R.L.R.E.H.L.[am]}$$$$V2.0)	5.52	-67.5	-66.4	-65.7	inactive	inactive	inactive	inactive	Non-Toxic	Active	Active	Active	Active	Active	Active	Active	Active	Active	Stable	Active	Activity [23]: Non-Toxic; Activity [24]: Non-Toxic; Activity [25]: Non-Toxic; Activity [26]: Non-Toxic; Activity (B16-F10 [27]): Active

Source: ChEMBL document CHEMBL5036332, “Glucose-Lipopeptide Conjugates Reveal the Role of Glucose Modification Position in Complexation and the Potential of Malignant Melanoma Therapy” (J Med Chem, 2021)
